{"source": "paper PMC10906223", "about": "(JCI Insight, 2024)", "format_in_all_cases": "in vivo, mouse", "key": {"[1]": {"tested_on": "diabetic NOD mice", "experiment": "Blood glucose in diabetic NOD mice, once-daily oral WCDD301 in SAIB-Agar", "set-up": "Blood glucose: unit: mg/dL", "settings": "for Blood glucose: oral 7.5 mg/kg once daily, per mouse, Figure 6A, 7.5 mg/kg", "description": "For the polygenic model for T1D (the Jackson Laboratory), 10 cohorts of independent NOD/shiLTJ mice (each 10, equal numbers of females and males) were purchased at 7–9 weeks old. Blood glucose levels were monitored twice a week using a glucometer (Glucocard Vital) to find those mice at risk of diabetes. Diabetes was confirmed when the blood glucose levels remained at 200–250 mg/dL for 3 consecutive days. This profile of the blood glucose level is referred to as moderate hyperglycemia.\nWe prepared sustained time-release pearls for oral administration in the mouse models. To this end, we combined FDA-approved excipients of Eastman BioSustane SAIB NF (product code: 41271-00, sample distribution from Eastman Company, Kingsport, Tennessee, USA; provided by Phillip Cook) and Agar (Lamda Biotech, catalog C110) at the ratio of 1:1.45 (w/w). We also prepared another type of sustained time-release pearl by mixing SAIB, Agar, and L (-) malic acid (MilliporeSigma, catalog 202-601-5) at the ratio of 1:1.4:0.2 (w/w/w). A homogenous paste mixture was prepared, and pearls were formed with 50–60 mg weight and approximately 2 mm diameter by pinching off the mixture and manually rolling.\nWe preweighed WCDD301 into microfuge tubes and reconstituted it using deionized water. Using a 10 μL pipette tip, we placed the calculated dose of WCDD301 (at the volume range of 1–1.5 μL) within the center of pearls. WCDD301 was placed into pearls 30–45 minutes before administration. For oral administration of pearls, we designed an applicator using a disposable plastic transfer pipette and syringe plunger lubricated with olive oil. Food intake and body weight in each experimental group (diabetic WCDD301-treated, diabetic placebo-treated, and nondiabetic placebo-treated NOD mice) were monitored daily for 4 weeks. Urine glucose was measured from individually caged NOD mice (nondiabetic placebo treated n = 2, diabetic placebo treated n = 2, and diabetic WCDD301 treated n = 4, 21–23 weeks old) with metabolic cages. Urine glucose was monitored every 24 hours for 10 days by semiquantitative measurements (P-STICKS, Millpledge Veterinary).\nWe applied the following therapeutic regimens in the fed state for oral dosing of pearls containing WCDD301. The therapeutic regimen for diabetic NOD mice with moderate hyperglycemia (n = 6–9; 6 females/3 males) or nondiabetic ones with blood glucose levels of < 140 mg/dL (females, n = 5) was dose 7.5 mg/kg, dosage once a day, and excipient SAIB-Agar, 50–60 mg. The therapeutic regimen for STZ-induced diabetic mice with early severe hyperglycemia (n = 3, placebo group; n = 4 treatment group, females) was dose 10 mg/kg, dosage once a day, and excipient SAIB-Agar-malic acid, 50–60 mg."}, "[2]": {"tested_on": "diabetic NOD mice", "experiment": "Intraperitoneal glucose tolerance test in NOD mice", "set-up": "Blood glucose, IPGTT (Figure 6D): unit not given here", "settings": "for Blood glucose, IPGTT (Figure 6D): Diabetic", "description": "Following 5 hours of fasting, NOD mice were injected with 20% sterile glucose solution (i.p. […] body weight; at the volume of 10 times of the body weight). Blood glucose levels were measured before injection by tail nick. Following injection, blood glucose levels were measured at time points of 15, 30, 45, 60, 90, 120, and 180 minutes by using the glucometer. […] Glucose tolerance test was done at 3 time points (8, 14, and 24 hours) after the final WCDD301 administration. Data were plotted using GraphPad Prism software version 4."}, "[3]": {"tested_on": "α cells of NOD mice islets", "experiment": "α cell numbers and sizes in islets of NOD mice", "settings": "11-week administration; Supplemental Figure 7", "description": "Pancreata of NOD mice (females, n = 3 per group) from nondiabetic, diabetic placebo-treated, and diabetic WCDD301-treated cohorts were excised; fixed in 10% buffered formalin for 5 days; and treated with ethanol 70% for 2 days before paraffin embedding. The paraffin-embedded tissue blocks were longitudinally sectioned in 5 μm slices and fixed on microscope slides. Following deparaffinization (through incubation in graded xylene, graded ethanol, and PBS), permeabilization (using 0.1% Triton X-100 in PBS), and background blocking (using 5% BSA solution containing 0.1% Tween 20), samples were incubated with primary antibodies (mouse anti-glucagon, Abcam, catalog ab10988; above-mentioned rabbit anti-EphA4), secondary antibodies (goat anti-mouse IgG Alexa Fluor 488; Invitrogen, catalog A-11001; goat anti-rabbit IgG Alexa Fluor 633, Invitrogen, catalog A-21070), SPY555-Actin (Cytoskeleton, catalog SC202), and DAPI. Image acquisition and analysis were performed as for dispersed islet cells. […] ROIs were manually drawn around each islet, background signal was removed by thresholding, and intensity of glucagon signal was determined and normalized by the islet surface area. To determine sizes of α cells per islet, ROIs were manually drawn around α cells in each islet. […]"}}, "note": "Where “and” joins values, the source holds several entries; their conditions need not be identical. Equal values may be shown once. Entries after “also recorded” stand apart in the source; their conditions may differ.", "data": [{"smiles": "CC(=O)OCC(N)(COC(C)=O)COC(C)=O", "note": "[WCDD301, 2-(acetoxymethyl)-2-aminopropane-1,3-diyl diacetate]", "values": [{"measurement": "Blood glucose (Supplemental Figure 6A)", "setting": "[1]; 48h later (after stopping dosing)", "result": "350 mg/dL and 370 mg/dL and 330 mg/dL"}, {"measurement": "Blood glucose (Supplemental Figure 6A)", "setting": "[1]; A week after resuming dosing", "result": "119 mg/dL and 124 mg/dL and 131 mg/dL"}, {"measurement": "Blood glucose (Supplemental Figure 6A)", "setting": "[1]; Stoping dosing", "result": "119 mg/dL and 109 mg/dL and 124 mg/dL"}, {"measurement": "Blood glucose (Supplemental Figure 6A)", "setting": "[1]; Week 1", "result": "184 mg/dL and 200 mg/dL and 210 mg/dL"}, {"measurement": "Blood glucose (Supplemental Figure 6A)", "setting": "[1]; Week 2", "result": "122 mg/dL and 116 mg/dL and 109 mg/dL"}, {"measurement": "Blood glucose (Supplemental Figure 6A)", "setting": "[1]; Week 3", "result": "132 mg/dL and 147 mg/dL and 115 mg/dL"}, {"measurement": "Effect on blood glucose", "setting": "[1]; diabetic NOD mice, moderate hyperglycemia (200–250 mg/dL), once-daily oral, SAIB-Agar", "result": "significantly reduced blood glucose levels within a week of administration; also recorded: normalized blood glucose level during an 11-week follow-up"}, {"measurement": "Time to normalized blood glucose", "setting": "[1]; diabetic NOD mice, SAIB-Agar formulation", "result": "≤ 2", "unit": "weeks"}, {"measurement": "Blood glucose", "setting": "[1]; diabetic NOD mice, Week 1, before treatment 230-251, mg/dL", "result": "165 and 170 and 163 and 184 and 200 and 210 and 198 and 180 and 175"}, {"measurement": "Blood glucose", "setting": "[1]; diabetic NOD mice, Week 2", "result": "114 and 125 and 128 and 122 and 116 and 109 and 115"}, {"measurement": "Blood glucose", "setting": "[1]; diabetic NOD mice, Week 3", "result": "120 and 115 and 116 and 132 and 147 and 109 and 110"}, {"measurement": "Blood glucose", "setting": "[1]; diabetic NOD mice, Week 4", "result": "119 and 124 and 108 and 112 and 115 and 110"}, {"measurement": "Blood glucose", "setting": "[1]; diabetic NOD mice, Week 5", "result": "109 and 105 and 115 and 118 and 117"}, {"measurement": "Blood glucose", "setting": "[1]; diabetic NOD mice, Week 6", "result": "105 and 107 and 104 and 120 and 112 and 118"}, {"measurement": "Blood glucose", "setting": "[1]; diabetic NOD mice, Week 7", "result": "109 and 105 and 106 and 110 and 118 and 116"}, {"measurement": "Blood glucose", "setting": "[1]; diabetic NOD mice, Week 8", "result": "109 and 107 and 110 and 118 and 116"}, {"measurement": "Blood glucose", "setting": "[1]; diabetic NOD mice, Week 9", "result": "114 and 109 and 120 and 105 and 118 and 98"}, {"measurement": "Blood glucose", "setting": "[1]; diabetic NOD mice, Week 10", "result": "119 and 114 and 117 and 102 and 105 and 108"}, {"measurement": "Blood glucose", "setting": "[1]; diabetic NOD mice, Week 11", "result": "109 and 112 and 116 and 114 and 108 and 110"}, {"measurement": "Blood glucose after discontinuing for 48 hours and resuming dosing", "setting": "[1]; treated diabetic NOD mice, Supplemental Figure 6A", "result": "resulted in hyperglycemia; also recorded: Euglycemia returned after resuming the WCDD301 dosing"}, {"measurement": "Blood glucose, IPGTT (Figure 6D)", "setting": "[2]; 8h after WCDD301 dosing (first group, c4-c6), 0 min", "result": "135 and 151 and 125"}, {"measurement": "Blood glucose, IPGTT (Figure 6D)", "setting": "[2]; 8h after WCDD301 dosing (first group, c4-c6), 15 min", "result": "160 and 159 and 158"}, {"measurement": "Blood glucose, IPGTT (Figure 6D)", "setting": "[2]; 8h after WCDD301 dosing (first group, c4-c6), 30 min", "result": "175 and 165 and 162"}, {"measurement": "Blood glucose, IPGTT (Figure 6D)", "setting": "[2]; 8h after WCDD301 dosing (first group, c4-c6), 45 min", "result": "165 and 175"}, {"measurement": "Blood glucose, IPGTT (Figure 6D)", "setting": "[2]; 8h after WCDD301 dosing (first group, c4-c6), 60 min", "result": "155 and 145 and 135"}, {"measurement": "Blood glucose, IPGTT (Figure 6D)", "setting": "[2]; 8h after WCDD301 dosing (first group, c4-c6), 90 min", "result": "150 and 135 and 114"}, {"measurement": "Blood glucose, IPGTT (Figure 6D)", "setting": "[2]; 8h after WCDD301 dosing (second group, c7-c9), 0 min", "result": "140 and 151 and 137"}, {"measurement": "Blood glucose, IPGTT (Figure 6D)", "setting": "[2]; 8h after WCDD301 dosing (second group, c7-c9), 15 min", "result": "210 and 206 and 205"}, {"measurement": "Blood glucose, IPGTT (Figure 6D)", "setting": "[2]; 8h after WCDD301 dosing (second group, c7-c9), 30 min", "result": "340 and 307 and 321"}, {"measurement": "Blood glucose, IPGTT (Figure 6D)", "setting": "[2]; 8h after WCDD301 dosing (second group, c7-c9), 45 min", "result": "380 and 356 and 372"}, {"measurement": "Blood glucose, IPGTT (Figure 6D)", "setting": "[2]; 8h after WCDD301 dosing (second group, c7-c9), 60 min", "result": "320 and 395 and 372"}, {"measurement": "Blood glucose, IPGTT (Figure 6D)", "setting": "[2]; 8h after WCDD301 dosing (second group, c7-c9), 90 min", "result": "295 and 386 and 368"}, {"measurement": "Blood glucose, IPGTT (Figure 6D)", "setting": "[2]; 8h after WCDD301 dosing (second group, c7-c9), 120 min", "result": "135 and 159 and 148"}, {"measurement": "Blood glucose, IPGTT (Figure 6D)", "setting": "[2]; 14h after WCDD301 dosing, 0 min", "result": "119 and 140 and 138"}, {"measurement": "Blood glucose, IPGTT (Figure 6D)", "setting": "[2]; 14h after WCDD301 dosing, 15 min", "result": "520 and 480 and 450"}, {"measurement": "Blood glucose, IPGTT (Figure 6D)", "setting": "[2]; 14h after WCDD301 dosing, 30 min", "result": "650 and 550"}, {"measurement": "Blood glucose, IPGTT (Figure 6D)", "setting": "[2]; 14h after WCDD301 dosing, 45 min", "result": 650}, {"measurement": "Blood glucose, IPGTT (Figure 6D)", "setting": "[2]; 14h after WCDD301 dosing, 60 min", "result": "650 and 550 and 468"}, {"measurement": "Blood glucose, IPGTT (Figure 6D)", "setting": "[2]; 14h after WCDD301 dosing, 90 min", "result": "555 and 450 and 350"}, {"measurement": "Blood glucose, IPGTT (Figure 6D)", "setting": "[2]; 14h after WCDD301 dosing, 120 min", "result": "410 and 325 and 286"}, {"measurement": "Blood glucose, IPGTT (Figure 6D)", "setting": "[2]; 14h after WCDD301 dosing, 180 min", "result": "158 and 151 and 140"}, {"measurement": "Blood glucose, IPGTT (Figure 6D)", "setting": "[2]; 24h after WCDD301 dosing, 0 min", "result": "320 and 290 and 325"}, {"measurement": "Blood glucose, IPGTT (Figure 6D)", "setting": "[2]; 24h after WCDD301 dosing, 15 min", "result": "590 and 480 and 552"}, {"measurement": "Blood glucose, IPGTT (Figure 6D)", "setting": "[2]; 24h after WCDD301 dosing, 30 min", "result": "650 and 590 and 610"}, {"measurement": "Blood glucose, IPGTT (Figure 6D)", "setting": "[2]; 24h after WCDD301 dosing, 45 min", "result": 650}, {"measurement": "Blood glucose, IPGTT (Figure 6D)", "setting": "[2]; 24h after WCDD301 dosing, 60 min", "result": "590 and 600 and 580"}, {"measurement": "Blood glucose, IPGTT (Figure 6D)", "setting": "[2]; 24h after WCDD301 dosing, 90 min", "result": "520 and 590 and 570"}, {"measurement": "Blood glucose, IPGTT (Figure 6D)", "setting": "[2]; 24h after WCDD301 dosing, 120 min", "result": "490 and 520 and 505"}, {"measurement": "Blood glucose, IPGTT (Figure 6D)", "setting": "[2]; 24h after WCDD301 dosing, 180 min", "result": "510 and 550 and 512"}, {"measurement": "Glucose tolerance", "setting": "[2]; NOD mice versus placebo-treated diabetic control", "result": "Glucose tolerance was improved"}, {"measurement": "Numbers or sizes of α cells (histology)", "setting": "[3]", "result": "did not indicate any alterations in numbers or sizes of α cells"}]}]}
